System: Escherichia coli
Test: detection of viable microbes in solid food (namul of spinach) with added Escherichia coli, CFDA and Phenol Red solutions at various pH
Assay type: cell-based
Conditions: pH 5 of the CFDA solution and the Phenol Red solution
Procedure: In a second example, detection of live microbes was conducted using solid food (namul of spinach) to which Escherichia coli were added. The treatment to extract the microbes from the solid food into liquid was carried out referring to “A Guide to Food Sanitation Test, Volume on Microorganisms” (in Japanese; published by Japan Food Hygiene Association, 1990). Ten grams of the solid food (namul of spinach) to which Escherichia coli (about 10^7) was added was aliquoted into a stomacher bag. (The stomacher bag is made of flexible plastic film such as polyethylene and sterilized by radiation. There is a compartment inside the stomacher bag created by a partition of non-woven fabric or a plastic film with a pore size of about 0.28 mm diameter, and a liquid component can be extracted excluding relatively large solid bodies from the compartment. The aliquot of the solid food is supplied with 90 mL of sterile phosphate buffer saline and crushed and dispersed using a stomacher. A stomacher is an apparatus for extracting live microbes contained in food to liquid. In the stomacher, the stomacher bag containing food is placed between a fixed plate and a paddle and the food is crushed and dispersed by squeezing the bag containing food while moving the paddle back and forth. […] Using the liquid, viable microbes were detected in a procedure similar to that in Example 1. […]

**Q.** carboxyfluorescein diacetate [CFDA] was tested. Which “staining of viable microbes with the fluorescent dye” value did it give?
**A.** the viable microbes were not stained with the fluorescent dye
